The record followed here is patent publication US20220142948A1, “COMPOSITIONS AND METHODS FOR MODULATING METABOLIC REGULATORS OF T CELL PATHOGENICITY” (The Broad Institute, Inc., priority 2019, published 2022).

Assay type in all cases: cell-based, mouse
Experiment [1] relates to Th17n, Th17p and iTreg cells. Briefly: Population ATAC-seq chromatin accessibility.
Source text: ATAC-seq. For population ATAC-seq, in vitro differentiated T-cells were sorted for live cells and froze down in Bambanker freezing media (Thermo Fisher Scientific).
Alignment of ATAC-Seq and Peak Calling. All ATAC-Seq reads were trimmed using Trimmomatic to remove primer and low-quality bases. Reads <36 bp were dropped. Reads were then passed to FastQC [www.bioinformatics.babraham.ac.uk/projects/fastqc/] to check the quality of the trimmed reads. The paired-end reads were then aligned to the mm10 reference genome using bowtie2 [29], allowing maximum insert sizes of 2000 bp, with the “—no-mixed” and “—no-discordant” parameters added. Reads with a mapping quality (MAPA) below 30 were removed. Duplicates were removed with PicardTools, and the reads mapping to the blacklist regions and mitochondrial DNA were also removed. Reads mapping to the positive strand were moved +4 bp, and reads mapping to the negative strand were moved −5 bp following the procedure outlined in [30] to account for the binding of the Tn5 transposase.
(§1) Peaks were called using macs2 on the aligned fragments with a qvalue cutoff of 0.001 and overlapping peaks among replicates were merged.
Tests of Differential Accessibility in ChARs. Differential accessibility was assessed using DESeq2 [32] on with a matrix of peaks by samples replacing the genes by samples matrix. Counts of Tn5 cuts were used instead of gene expression values.
ATAC-seq. For population ATAC-seq, in vitro differentiated T-cells were sorted for live cells and stored in Bambanker freezing media (Thermo Fisher Scientific) at −80° C. until further processing. Prior to library preparation, cells were thawed at 37° C. and washed with PBS. For ATAC-seq, cell pellets were lysed and tagmented in 1×TD Buffer, 0.2 ul TDE1 (Illumina), 0.01% digitonin, and 0.3×PBS in 40 ul reaction volume following the protocol described in [49]. Transposition reactions were incubated at 37° C. for 30 min at 300 rpm. The DNA was purified from the reaction using a MinElute PCR purification kit (QIAGEN). The whole resulting product was then PCR-amplified using indexed primers with NEBNext High-Fidelity 2X PCR Master Mix (NEB). First, Applicants performed 5 cycles of pre-amplification. Applicants sampled 10% of the pre-amplification reaction for SYBR Green quantitative PCR to assess the number of additional cycles needed for final amplification. After purifying the final library with the MinElute PCR purification kit (QIAGEN), the library was quantified for sequencing using qPCR and a Qubit dsDNA HS Assay kit (Invitrogen). Libraries were sequenced on an Illumina NextSeq 550 system with paired-end reads of 37 base pairs in length.
Alignment of ATAC-Seq and Peak Calling. All ATAC-Seq reads were trimmed using Trimmomatic to remove primer and low-quality bases. Reads <36 bp were dropped. Reads were then passed to FastQC [www.bioinformatics.babraham.ac.uk/projects/fastqc/] to check the quality of the trimmed reads. The paired-end reads were then aligned to the mm10 reference genome using bowtie2 [51], allowing maximum insert sizes of 2000 bp, with the “—no-mixed” and “—no-discordant” parameters added. Reads with a mapping quality (MAPA) below 30 were removed. Duplicates were removed with PicardTools, and the reads mapping to the blacklist regions and mitochondrial DNA were also removed. Reads mapping to the positive strand were moved +4 bp, and reads mapping to the negative strand were moved −5 bp following the procedure outlined in [52] to account for the binding of the Tn5 transposase.
as §1
Tests of Differential Accessibility. Differential accessibility was assessed using DESeq2 [54] on with a matrix of peaks (merging all samples) by samples. […]

Experiment [2] has as its system Th17 cells (Th17n, Th17p). The experiment can be described thus: Protein, phospho-protein and histone mark analysis by flow cytometry. How it is done:
Proliferation was assessed by staining with CellTrace Violet (Thermo Fisher Scientific) per manufacturer's instructions. Apoptosis was assessed using Annexin V staining kit (BioLegend). Phosphorylation of proteins to determine cell signaling was performed with BD Phosflow buffer system (BD bioscience) as per manufacturer's instructions.
T cell differentiation culture and flow cytometry. Naïve CD4+CD44-CD62L+CD25− T cells were sorted using BD FACSAria sorter and activated with plate-bound anti-CD3 (1 μg/ml) and antiCD28 antibodies (1 μg/ml) in the presence of cytokines at a concentration of 5×10^5 cells/ml. For T cell differentiations the following combinations of cytokines were used: pathogenic Th17: 25 ng/ml rmIL-6, 20 ng/ml rmIL-1b (both Miltenyi Biotec) and 20 ng/ml rmIL-23 (R&D systems); non-pathogenic Th17: 25 ng/ml rmIL-6 and 2 ng/ml of rhTGFb1 (Miltenyi Biotec); iTreg: 2 ng/ml of rhTGFb1; Th1: 20 ng/ml rmIL-12 (R&D systems); Th2: 20 ng/ml rmIL-4 (Miltenyi Biotec). Intracellular cytokine staining was performed after incubation for 4-6h with Cell Stimulation cocktail plus Golgi transport inhibitors (Thermo Fisher Scientific) using the BD Cytofix/Cytoperm buffer set (BD Biosciences) per manufacturer's instructions. Transcription factor staining was performed using the Foxp3/Transcription Factor Staining Buffer Set (eBioscience). Proliferation was assessed by staining with CellTrace Violet (Thermo Fisher Scientific) per manufacturer's instructions. Apoptosis was assessed using Annexin V staining kit (BioLegend). Phosphorylation of proteins to determine cell signaling was performed with BD Phosflow buffer system (BD bioscience) as per manufacturer's instructions.
In general terms: In flow cytometry, cells or beads pass a laser one at a time.

For experiment [3], the system named is PGAM in Th17n and Th17p cells. Briefly: 13C-glucose carbon tracing by LC/MS. On the procedure:
For carbon tracing experiments Th17 cells were differentiated as described. Thereafter, cells were washed and cultured in media supplemented with 8 mM [U-13C]-glucose for 15 min or 3 hrs.
Let |Ci| be the number of carbon atoms in metabolite i, and let xc,i,j be the measured signal of metabolite i in sample j (subsequent to all normalization and QC procedures) in which there are exactly c 13C atoms. The comparisons of carbon flows are based on the statistic yi,j=(Σt=0^|C^i^|t·xt,i,j)/(|Ci|·Σt=0^|C^i^|xt,i,j)
which measures the 13C ratio of the total carbon contents for metabolite i in sample j.
To find metabolites with differential 13C relative abundance, Applicants computed the ratio yi,j of 13C out of the total carbon contents for each metabolite i in sample j. Let |Ci| be the number of carbon atoms in metabolite i, and let xc,i,j be the measured signal of metabolite i in sample j (subsequent to all normalization and QC procedures) in which there are exactly c 13C atoms.

Entries after “also recorded” stand apart in the source; their conditions may differ.

On to `NCCC[C@](N)(C(=O)O)C(F)F` [DFMO, 2-(difluoromethyl)ornithine], for which, in experiment [1], the “ATACseq peaks in the Il23r region” value is recorded as “no significant difference”, the “accessibility in Th17 specific regions” value was “specifically reduced accessibility; also recorded: reduces accessibility; also recorded: more restricted landscape; also recorded: less accessibility”, the “accessibility in Treg specific regions” value is recorded as “more accessible landscape; also recorded: more accessibility” and the “peaks near regulatory elements for Foxp3 such as CNS2” value is reported as “no differentially expressed peaks”. Further, the “peaks in the promoter and intergenic regions of Il17a-Il17f” value in experiment [1] (Rorgt binding site) is on record as “significantly restricted peaks”. Besides, in experiment [1] (Th17n cells), the “accessibility near potential binding sites of JMJD3 and POU-domain TFs” value is recorded as “increased accessibility”. The accessible peaks overall result in experiment [1] (Th cells analyzed) is reported as “alters chromatin accessibility; also recorded: significant changes in accessible peaks; also recorded: considerable changes in accessible peaks”. Further, in experiment [1] (both Th17n and Th17p cells), the “motif enrichment in iTreg-specific accessible regions” value was “significant enrichment of BATF and cMAF motifs”. Besides, in experiment [2], the “total Stat3 protein levels” value is given as “not total Stat3 protein levels”. Further, in experiment [2] (Th17 cells), the H3K4 trimethylation result is listed as “promoted”, the H3K9 trimethylation entry is “promoted”, the H3K27 trimethylation result is “promoted” and the pStat3 result is “does not seem to alter; also recorded: did not alter; also recorded: inconsistently regulated”. Also, in experiment [2] (Th17p cells), the pStat3 entry is on record as “decreased”. Besides, the “pFoxo1(S256)” value in experiment [2] (both types of Th17 cells) is reported as “promoted”.
With epigallocatechin-3-gallate [EGCG], in experiment [3] (Th17n and Th17p), the “13C contents of 2PG” value is “decrease; also recorded: disturbs”. Besides, the “13C ratio of 2PG after EGCG” value in experiment [3] (Th17p) came out at 33%.
